Source: patent US8273768B2, “Iso CA-4 and analogues thereof as potent cytotoxic agents inhibiting tubuline polymerization” (Centre National de la Recherche Scientifique (CNRS), priority 2007, dated 2012)

What was measured:
A549 = assay: Study of cytotoxicity (CellTiter-Blue, 72 hours); format: cell-based; conditions: Homo sapiens, A549; 72 hours of incubation; read-out: IC50 for different cell lines: A549
Description: (§1) The biological activity of the compounds of the invention was studied in vitro on 7 human cancer cell lines with different tissue origins (HCT116: colorectal carcinoma; K562: chronic myeloid leukemia; B16-F10: melanoma; U87: glioblastoma; A549: lung cancer and MDA-MB 231 and MDA-MB 435: breast cancer). The cells selected for the study were incubated at 37° C. in the presence of one of the compounds added into the culture medium at different concentrations. The whole of the conducted experiments allowed determination of the toxicity level of the tested compound, its effect on the course of the cell cycle as well as its capacity of inducing cell death by apoptosis.
(§2) The cancer cell lines originate from the American Type Culture Collection (Rockville, Md., USA) and were grown according to the recommendations of the supplier.
(§3) The cells A549, U87, MDA-MB231, MDA-MB435 and B16F10 were grown in a culture medium “Dulbecco minimal essential medium” (DMEM) containing 4.5 g/L of glucose and supplemented with 10% fetal calf serum and 1% glutamine. The K562 and HCT116 were grown in an RPMI 1640 medium containing 10% fetal calf serum and 1% glutamine. All the cell lines were maintained in the culture at 37° C. in a humid atmosphere containing 5% of CO2. Cell viability was evaluated by using the reagent “CellTiter-Blue™” (Promega, Wis., USA) while observing the instructions of the manufacturer. The cells were sown in 96-well culture plates with 5000 cells per well in 50 μL of culture medium. After 24 hours of culture, the compounds of general formula (I) dissolved in DMSO were individually added into each of the wells in an amount of 50 μl per well. All the compounds were tested in triplicate for each defined concentration and each experiment was repeated three times. After 72 hours of incubation, 20 μL of resazurin were added in each well. After 2 hours of incubation, the emitted fluorescence was measured at 590 nm after excitation at 560 nm by means of a fluorescence reader of the Victor type (Perkin-Elmer, USA).
(§4) The concentration of each of the compounds which induces the death of 50% of the cells (IC50) was determined after 72 hours of incubation. Certain compounds according to the invention have an IC50 of the order of one nanomolar concentration, therefore equivalent to CA-4 taken as a reference.

HCT116 = assay: Study of cytotoxicity (CellTiter-Blue, 72 hours); format: cell-based; conditions: Homo sapiens, HCT-116; 72 hours of incubation; read-out: IC50 for different cell lines: HCT116
Description: as §1, §2, §3, §4

K562 = assay: Study of cytotoxicity (CellTiter-Blue, 72 hours); format: cell-based; conditions: Homo sapiens, 72 hours of incubation, read-out: IC50 for different cell lines: K562
Description: as §1, §2, §3, §4

MDA-MB 231 = assay: Study of cytotoxicity (CellTiter-Blue, 72 hours); format: cell-based; conditions: Homo sapiens, MDA-MB-231; 72 hours of incubation; read-out: IC50 for different cell lines: M231
Description: as §1, §2, §3, §4

MDA-MB 435 = assay: Study of cytotoxicity (CellTiter-Blue, 72 hours); format: cell-based; conditions: Homo sapiens, MDA-MB-435; 72 hours of incubation; read-out: IC50 for different cell lines: M435
Description: as §1, §2, §3, §4

U87 = assay: Study of cytotoxicity (CellTiter-Blue, 72 hours); format: cell-based; conditions: Homo sapiens, U-87 MG; 72 hours of incubation; read-out: IC50 for different cell lines: U87
Description: as §1, §2, §3, §4

B16F10 = assay: Study of cytotoxicity (CellTiter-Blue, 72 hours); format: cell-based, human; conditions: Mus musculus, B16-F10; 72 hours of incubation; read-out: IC50 for different cell lines: B16F10
Description: as §1, §2
The cells A549, U87, MDA-MB231, MDA-MB435 and B16F10 were grown in a culture medium “Dulbecco minimal essential medium” (DMEM) containing 4.5 g/L of glucose and supplemented with 10% fetal calf serum and 1% glutamine. […] Cell viability was evaluated by using the reagent “CellTiter-Blue™” (Promega, Wis., USA) while observing the instructions of the manufacturer. […] After 2 hours of incubation, the emitted fluorescence was measured at 590 nm after excitation at 560 nm by means of a fluorescence reader of the Victor type (Perkin-Elmer, USA). […]

K562 cells = assay: Study of the cell cycle (flow cytometry); format: cell-based, human; conditions: K562, 24 hours, 5 nM
Description: (§5) The K562 and MDA-MB231 cells are sown in 6-well culture plates with 300,000 cells per well in their respective media as described above. After 24 hours of culture, the compound (I-1) was added in each of the wells at different concentrations. After 24 hours of incubation, the cells are collected individually in 15 mL tubes and then centrifuged. The cells are then washed twice in cold PBS and then re-suspended in 1 mL of PBS, fixed by adding 2 mL of cold absolute ethanol and placed at 4° C. for 1 hour. After centrifugation, the cells are washed twice in PBS and then the cell pellet is taken up in 100 μL of Triton X100 at 1%. After 30 minutes of incubation at room temperature, 50 μL of RNase A boiled beforehand (1 mg/mL) and 500 μL of propidium iodide (50 μg/mL) are added into each tube and incubated in the dark at room temperature for 30 minutes. The distribution of the number of cells in each of the phases of the cell cycle is then determined by flow cytometry with a cytometer of the FC500 type (Beckman-Coulter, France).
(§6) This effect is significant after 24 hours of exposure of the cells to the compound (I-1) used at a concentration of 5 nM (FIG. 1).

MDA-MB231 cells = assay: Study of the cell cycle (flow cytometry); format: cell-based, human; conditions: MDA-MB231, 24 hours, 5 nM
Description: as §5, §6

[1] = Cytotoxicity on human endothelial cells; format: cell-based; conditions: human; EAhy926, measured after 72 hours; read-out: IC50, cytotoxic activity on EAhy926 (FIG. 4 legend)
Description: (§7) Cytotoxicity of compound (I-1) towards human endothelial cells (EAhy926) was evaluated after 1 hour, 3 hours and 6 hours of treatment. The number of living cells was either counted immediately at the end of the treatment (FIG. 3) or 72 hours after stopping the treatment (FIG. 4). It is observed that when the endothelial cells are treated for 72 hours with the compound (I-1), the IC50 is 2 nM.
(§8) The EAhy926 cells (immortalized HUVEC macrovascular endothelial cells) were cultivated in a culture medium “Dulbecco minimal essential medium” (DMEM) containing 4.5 g/L of glucose and supplemented with 10% fetal calf serum, 1% glutamine and a supplement of HAT (100 μM of hypoxanthine, 0.4 μM of aminopterin and 16 μM of thymidine, Invitrogen; Cergy-Pontoise, France). The cells were maintained in the culture at 37° C. in a humid atmosphere containing 5% CO2.
(§9) The cells were sown in 96-well culture plates in an amount of 3,000 cells per well in 50 μL of culture medium. […] At the end of the treatment, the number of cells was evaluated by using the reagent “CellTiter-Blue™” (Promega, Wis., USA) as described earlier. In parallel, after 1 hour, 3 hours or 6 hours of treatment with compound (I-1), the culture medium was removed and replaced with fresh medium for 72 hours and the number of living cells was then measured by using the reagent “CellTiter-Blue™”.

[2] = system: human endothelial cells (EAhy926); assay: Cytotoxicity on human endothelial cells; format: cell-based; conditions: EAhy926, 1 hour, 3 hours or 6 hours of treatment, dose of 10 nM
Description: as §7, §8, §9

Structure (SMILES): C=C(c1ccc(OC)c(O)c1)c1cc(OC)c(OC)c(OC)c1 [(I-1)]
- IC50 (A549): 8 nM
- IC50 (HCT116): 2 to 4 nM
- IC50 (K562): 5 nM
- IC50 (MDA-MB 231): 4 nM
- IC50 (MDA-MB 435): 4.5 nM
- IC50 (U87): 8 nM
- IC50 (B16F10): 2 nM
- Effect on cell cycle (K562 cells): blocks cell division in the G2/M phase
- Effect on cell cycle (MDA-MB231 cells): blocks cell division in the G2/M phase
- IC50 at 72 h [1]: 2 nM
- Cytotoxic activity on endothelial cells, short treatment [2]: does not exhibit any cytotoxic activity
